# Laboratory results: patent publication US9540392B2, “Thienopyrimidines” (BAYER PHARMA AKTIENGESELLSCHAFT, priority 2012, dated 2017)
# Biological target: T1, human full-length MKNK1 (Homo sapiens, UniProt Q9BUB5, T385D)
# T1 construct: GST (N); purchased Carna Biosciences 02-145; host or cells: insect cells (baculovirus expression system)
# Assay: MKNK1 kinase high ATP assay (TR-FRET)
# Type: biochemical
# Conditions: not given
# Method in brief: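 Compound was preincubated 15 min at 22° C. with MKNK1 in 50 mM HEPES pH 7.5, 5 mM MgCl2, 1.0 mM DTT, then the reaction ran 30 min at 22° C. with 2 mM ATP and 0.06 μM biotinylated peptide (final).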
# T1 sequence (Q9BUB5 1-424 isoform Q9BUB5-2 T344D): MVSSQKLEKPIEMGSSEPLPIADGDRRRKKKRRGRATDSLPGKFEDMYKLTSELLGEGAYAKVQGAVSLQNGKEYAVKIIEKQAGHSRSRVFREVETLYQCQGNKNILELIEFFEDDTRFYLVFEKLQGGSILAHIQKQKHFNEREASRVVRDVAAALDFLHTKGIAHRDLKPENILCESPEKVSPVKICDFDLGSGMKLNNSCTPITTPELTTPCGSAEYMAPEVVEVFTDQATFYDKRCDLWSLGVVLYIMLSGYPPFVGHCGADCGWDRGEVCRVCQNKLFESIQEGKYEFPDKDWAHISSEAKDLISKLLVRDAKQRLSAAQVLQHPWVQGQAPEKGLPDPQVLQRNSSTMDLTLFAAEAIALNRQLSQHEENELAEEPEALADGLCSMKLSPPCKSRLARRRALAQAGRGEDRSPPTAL
row,Structure (SMILES),IC50
1,"CCOc1cc2[nH]ncc2cc1Nc1ncnc2sc3c(c12)CCC(C(=O)N1CCC(=O)CC1)C3 (racemic) [Example 211, (RS)-1-({4-[(6-Ethoxy-1H-indazol-5-yl)amino]-5,6,7,8-tetrahydro[1]benzothieno[2,3-d]pyrimidin-7-yl}carbonyl)piperidin-4-one]",0.5 nM

# Same assay, conditions: 2 mM ATP, after preincubation with MKNK1; read-out: MKNK1 IC50 (MKNK1 high ATP)
row,Structure (SMILES),IC50
1,"CCOc1cc2[nH]ncc2cc1Nc1ncnc2sc3c(c12)CCC(C(=O)N(C)CC(F)F)C3 (racemic) [Example 226, (RS)—N-(2,2-Difluoroethyl)-4-[(6-ethoxy-1H-indazol-5-yl)amino]-N-methyl-5,6,7,8-tetrahydro[1]benzothieno[2,3-d]pyrimidine-7-carboxamide]",0.7 nM
2,"COc1cccc(NC(=O)C2CCc3c(sc4ncnc(Nc5ccc6[nH]ncc6c5)c34)C2)c1 (centres unmarked) [Example 13, 4-(1H-indazol-5-ylamino)-N-(3-methoxyphenyl)-5,6,7,8-tetrahydro[1]benzothieno[2,3-d]pyrimidine-7-carboxamide]",7 nM
3,"O=C(C1CCc2c(sc3ncnc(Nc4ccc5[nH]ncc5c4)c23)C1)N1CCS(=O)(=O)CC1 (racemic) [Example 188, (RS)-(1,1-dioxidothiomorpholin-4-yl)[4-(1H-indazol-5-ylamino)-5,6,7,8-tetrahydro[1]benzothieno[2,3-d]pyrimidin-7-yl]methanone]",22.6 nM
4,"Cc1ccc(NC(=O)C2CCc3c(sc4ncnc(Nc5ccc6[nH]ncc6c5)c34)C2)cc1 (centres unmarked) [Example 17, 4-(1H-indazol-5-ylamino)-N-(4-methylphenyl)-5,6,7,8-tetrahydro[1]benzothieno[2,3-d]pyrimidine-7-carboxamide]",5 nM
5,"Cn1ccnc1CNC(=O)C1CCc2c(sc3ncnc(Nc4ccc5[nH]ncc5c4)c23)C1 (racemic) [Example 165, (RS)-4-(1H-indazol-5-ylamino)-N-[(1-methyl-1H-imidazol-2-yl)methyl]-5,6,7,8-tetrahydro[1]benzothieno[2,3-d]pyrimidine-7-carboxamide]",16.8 nM
6,"O=C(NCCCn1ccnc1)C1CCc2c(sc3ncnc(Nc4ccc5[nH]ncc5c4)c23)C1 (racemic) [Example 93, (RS)-N-[3-(1H-imidazol-1-yl)propyl]-4-(1H-indazol-5-ylamino)-5,6,7,8-tetrahydro[1]benzothieno[2,3-d]pyrimidine-7-carboxamide]",9.9 nM
7,"CN(C)CCCNC(=O)C1CCc2c(sc3ncnc(Nc4ccc5[nH]ncc5c4)c23)C1 (centres unmarked) [Example 40, N-[3-(Dimethylamino)propyl]-4-(1H-indazol-5-ylamino)-5,6,7,8-tetrahydro[1] benzothieno [2,3-d]pyrimidine-7-carboxamide]",7 nM
8,"COc1cc2[nH]ncc2cc1Nc1ncnc2sc3c(c12)CCC(C(=O)N1CCCC1)C3 (racemic) [Example 183, (RS)-{4-[(6-Methoxy-1H-indazol-5-yl)amino]-5,6,7,8-tetrahydro[1]benzothieno[2,3-d]pyrimidin-7-yl}(pyrrolidin-1-yl)methanone]",3.2 nM
9,"CN(C)C(=O)C1CCc2c(sc3ncnc(Nc4cc5cn[nH]c5cc4OC(F)(F)F)c23)C1 (racemic) [Example 249, (RS)—N,N-Dimethyl-4-{[6-(trifluoromethoxy)-1H-indazol-5-yl]amino}-5,6,7,8-tetrahydro[1]benzothieno[2,3-d]pyrimidine-7-carboxamide]",15 nM
10,"CCN1CCN(C(=O)C2CCc3c(sc4ncnc(Nc5ccc6[nH]ncc6c5)c34)C2)CC1 (racemic) [Example 119, (RS)-(4-ethylpiperazin-1-yl)[4-(1H-indazol-5-ylamino)-5,6,7,8-tetrahydro[1]benzothieno[2,3-d]pyrimidin-7-yl]methanone]",15.9 nM
11,"CN1CCN(CCNC(=O)C2CCc3c(sc4ncnc(Nc5ccc6[nH]ncc6c5)c34)C2)CC1 (racemic) [Example 144, (RS)-4-(1H-indazol-5-ylamino)-N-[2-(4-methylpiperazin-1-yl)ethyl]-5,6,7,8-tetrahydro[1]benzothieno[2,3-d]pyrimidine-7-carboxamide]",21.7 nM
12,"O=C(C1CCc2c(sc3ncnc(Nc4ccc5[nH]ncc5c4)c23)C1)N1CCN(C(=O)N2CCCC2)CC1 (centres unmarked) [Example 52, [4-(1H-Indazol-5-ylamino)-5,6,7,8-tetrahydro[1]benzothieno [2,3-d]pyrimidin-7-yl][4-(pyrrolidin-1-ylcarbonyl)piperazin-1-yl]methanone]",20 nM
13,"O=C(C1CCc2c(sc3ncnc(Nc4ccc5[nH]ncc5c4)c23)C1)N1CCN(c2ccccn2)CC1 (racemic) [Example 87, (RS)-[4-(1H-indazol-5-ylamino)-5,6,7,8-tetrahydro[1]benzothieno[2,3-d]pyrimidin-7-yl][4-(pyridin-2-yl)piperazin-1-yl]methanone]",20.6 nM
14,"CN(Cc1ccnn1C)C(=O)C1CCc2c(sc3ncnc(Nc4ccc5[nH]ncc5c4)c23)C1 (racemic) [Example 138, (RS)-4-(1H-indazol-5-ylamino)-N-methyl-N-[(1-methyl-1H-pyrazol-5-yl)methyl]-5,6,7,8-tetrahydro[1]benzothieno[2,3-d]pyrimidine-7-carboxamide]",12.6 nM
15,"CC(C)NC(=O)C1CCc2c(sc3ncnc(Nc4ccc5[nH]ncc5c4)c23)C1 (centres unmarked) [Example 6, 4-(1H-Indazol-5-ylamino)-N-isopropyl-5,6,7,8-tetrahydro[1]benzothieno[2,3-d]pyrimidine-7-carboxamide]",4 nM
16,"CCCOc1cc2[nH]ncc2cc1Nc1ncnc2sc3c(c12)CCC(C(=O)N(C)C)C3 (racemic) [Example 269, (RS)—N,N-Dimethyl-4-[(6-propoxy-1H-indazol-5-yl)amino]-5,6,7,8-tetrahydro[1]benzothieno[2,3-d]pyrimidine-7-carboxamide]",2.7 nM
17,"Cn1cc(NC(=O)C2CCc3c(sc4ncnc(Nc5ccc6[nH]ncc6c5)c34)C2)cn1 (racemic) [Example 146, (RS)-4-(1H-indazol-5-ylamino)-N-(1-methyl-1H-pyrazol-4-yl)-5,6,7,8-tetrahydro[1]benzothieno[2,3-d]pyrimidine-7-carboxamide]",26.4 nM
18,"CCOc1cc2[nH]ncc2cc1Nc1ncnc2sc3c(c12)CCC(C(=O)N1CCC(N(C)C)C1)C3 (racemic) [Example 258, [(3RS)-3-(Dimethylamino)pyrrolidin-1-yl]{(7RS)-4-[(6-ethoxy-1H-indazol-5-yl)amino]-5,6,7,8-tetrahydro[1]benzothieno[2,3-d]pyrimidin-7-yl}methanone]",0.4 nM
19,"CCOc1cc2[nH]ncc2cc1Nc1ncnc2sc3c(c12)CCC(C(=O)N(CCOC)CCOC)C3 (racemic) [Example 252, (RS)-4-[(6-Ethoxy-1H-indazol-5-yl)amino]-N,N-bis(2-methoxyethyl)-5,6,7,8-tetrahydro[1]benzothieno[2,3-d]pyrimidine-7-carboxamide]",2.2 nM
20,"O=C(NCCc1c[nH]cn1)C1CCc2c(sc3ncnc(Nc4ccc5[nH]ncc5c4)c23)C1 (racemic) [Example 92, (RS)-N-[2-(1H-imidazol-4-yl)ethyl]-4-(1H-indazol-5-ylamino)-5,6,7,8-tetrahydro[1]benzothieno[2,3-d]pyrimidine-7-carboxamide]",9.8 nM
21,"CC(=O)N1CCN(C(=O)C2CCc3c(sc4ncnc(Nc5ccc6[nH]ncc6c5)c34)C2)CC1 (racemic) [Example 97, (RS)-1-(4-{[4-(1H-indazol-5-ylamino)-5,6,7,8-tetrahydro[1]benzothieno[2,3-d]pyrimidin-7-yl]carbonyl}piperazin-1-yl)ethanone]",20.3 nM
22,"CCOc1cc2[nH]ncc2cc1Nc1ncnc2sc3c(c12)CCC(C(=O)N1CCOCC1)C3 (racemic) [Example 212, (RS)-{4-[(6-Ethoxy-1H-indazol-5-yl)amino]-5,6,7,8-tetrahydro[1]benzothieno[2,3-d]pyrimidin-7-yl}(morpholin-4-yl)methanone]",0.3 nM
23,"COc1cc2[nH]ncc2cc1Nc1ncnc2sc3c(c12)CCC(C(=O)N1CC2CC1CO2)C3 (mixture of isomers) [Example 262, {(7RS)-4-[(6-Methoxy-1H-indazol-5-yl)amino]-5,6,7,8-tetrahydro[1]benzothieno[2,3-d]pyrimidin-7-yl}[(1S,4S)-2-oxa-5-azabicyclo[2.2.1]hept-5-yl]methanone]",6.1 nM
24,"O=C(Nc1ccncc1)C1CCc2c(sc3ncnc(Nc4ccc5[nH]ncc5c4)c23)C1 (racemic) [Example 94, (RS)-4-(1H-indazol-5-ylamino)-N-(pyridin-4-yl)-5,6,7,8-tetrahydro[1]benzothieno[2,3-d]pyrimidine-7-carboxamide]",23.4 nM
25,"COc1cc2[nH]ncc2cc1Nc1ncnc2sc3c(c12)CCC(C(=O)N1CCCCC1)C3 (racemic) [Example 176, (RS)-{4-[(6-Methoxy-1H-indazol-5-yl)amino]-5,6,7,8-tetrahydro[1]benzothieno[2,3-d]pyrimidin-7-yl}(piperidin-1-yl)methanone]",0.5 nM
26,"CN(C)C(=O)C1CCc2c(sc3ncnc(Nc4cc5cn[nH]c5cc4N(C)C)c23)C1 (racemic) [Example 251, (RS)-4-{[6-(Dimethylamino)-1H-indazol-5-yl]amino}-N,N-dimethyl-5,6,7,8-tetrahydro[1]benzothieno[2,3-d]pyrimidine-7-carboxamide]",0.2 nM
27,"COc1cc2[nH]ncc2cc1Nc1ncnc2sc3c(c12)CCC(C(=O)N1CCC(C)(C)C1)C3 (racemic) [Example 180, (RS)-(3,3-Dimethylpyrrolidin-1-yl){4-[(6-methoxy-1H-indazol-5-yl)amino]-5,6,7,8-tetrahydro[1]benzothieno[2,3-d]pyrimidin-7-yl}methanone]",0.8 nM
28,"Cn1nccc1NC(=O)C1CCc2c(sc3ncnc(Nc4ccc5[nH]ncc5c4)c23)C1 (racemic) [Example 117, (RS)-4-(1H-indazol-5-ylamino)-N-(1-methyl-1H-pyrazol-5-yl)-5,6,7,8-tetrahydro[1]benzothieno[2,3-d]pyrimidine-7-carboxamide]",11.2 nM
